Read-outs that look alike come from different tables or passages of the source.
Assays:
[1] = target: T1, AEA-DA lipid probe targets in Neuro2a cells (Mus musculus, UniProt P46638)
T1 sequence (P46638 1-218): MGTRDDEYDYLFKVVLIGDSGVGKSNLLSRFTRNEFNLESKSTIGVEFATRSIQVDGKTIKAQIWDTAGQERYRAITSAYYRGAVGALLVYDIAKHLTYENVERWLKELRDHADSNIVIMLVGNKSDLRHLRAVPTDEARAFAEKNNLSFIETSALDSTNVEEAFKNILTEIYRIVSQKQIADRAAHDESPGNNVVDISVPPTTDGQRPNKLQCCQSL

[2] = target: AEA-DA lipid probe targets in Neuro2a cells (Mus musculus, UniProt Q8BWM0)
Chain of AEA-DA lipid probe targets in Neuro2a cells (Mus musculus, UniProt Q8BWM0) (Q8BWM0 whole entry): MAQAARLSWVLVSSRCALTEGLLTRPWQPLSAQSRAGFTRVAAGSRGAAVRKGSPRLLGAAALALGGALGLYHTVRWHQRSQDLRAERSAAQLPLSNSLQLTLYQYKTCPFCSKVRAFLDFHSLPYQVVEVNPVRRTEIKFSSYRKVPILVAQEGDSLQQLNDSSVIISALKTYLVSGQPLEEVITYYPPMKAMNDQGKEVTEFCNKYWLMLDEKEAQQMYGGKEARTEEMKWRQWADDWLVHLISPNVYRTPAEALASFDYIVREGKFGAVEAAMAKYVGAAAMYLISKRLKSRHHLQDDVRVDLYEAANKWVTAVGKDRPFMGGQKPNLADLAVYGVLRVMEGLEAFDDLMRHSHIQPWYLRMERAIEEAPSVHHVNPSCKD

[3] = target: T2, AEA-DA lipid probe targets in Neuro2a cells (Mus musculus, UniProt Q03517)
T2 sequence (Q03517 31-617): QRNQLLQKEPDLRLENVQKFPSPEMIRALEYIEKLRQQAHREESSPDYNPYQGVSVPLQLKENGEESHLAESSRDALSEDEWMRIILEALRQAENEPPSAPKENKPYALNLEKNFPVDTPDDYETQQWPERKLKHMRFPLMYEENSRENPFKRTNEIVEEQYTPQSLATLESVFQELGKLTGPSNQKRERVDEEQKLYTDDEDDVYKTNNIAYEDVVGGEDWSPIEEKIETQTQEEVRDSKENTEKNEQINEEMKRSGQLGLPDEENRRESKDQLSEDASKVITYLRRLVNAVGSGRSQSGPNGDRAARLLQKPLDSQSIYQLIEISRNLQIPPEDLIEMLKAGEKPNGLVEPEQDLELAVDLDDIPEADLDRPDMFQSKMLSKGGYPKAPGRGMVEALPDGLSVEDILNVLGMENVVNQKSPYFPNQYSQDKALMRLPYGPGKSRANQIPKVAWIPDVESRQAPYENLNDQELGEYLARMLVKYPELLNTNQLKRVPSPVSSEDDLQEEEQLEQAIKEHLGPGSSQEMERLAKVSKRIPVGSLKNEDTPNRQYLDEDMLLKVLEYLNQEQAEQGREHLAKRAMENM

[4] = target: T3, AEA-DA lipid probe targets in Neuro2a cells (Mus musculus, UniProt Q91V01); conditions: for SILAC ratio, LPCAT3 (Q6P1A2): Neuro2a cells, AEA-DA probe
T3 sequence (Q91V01 1-487): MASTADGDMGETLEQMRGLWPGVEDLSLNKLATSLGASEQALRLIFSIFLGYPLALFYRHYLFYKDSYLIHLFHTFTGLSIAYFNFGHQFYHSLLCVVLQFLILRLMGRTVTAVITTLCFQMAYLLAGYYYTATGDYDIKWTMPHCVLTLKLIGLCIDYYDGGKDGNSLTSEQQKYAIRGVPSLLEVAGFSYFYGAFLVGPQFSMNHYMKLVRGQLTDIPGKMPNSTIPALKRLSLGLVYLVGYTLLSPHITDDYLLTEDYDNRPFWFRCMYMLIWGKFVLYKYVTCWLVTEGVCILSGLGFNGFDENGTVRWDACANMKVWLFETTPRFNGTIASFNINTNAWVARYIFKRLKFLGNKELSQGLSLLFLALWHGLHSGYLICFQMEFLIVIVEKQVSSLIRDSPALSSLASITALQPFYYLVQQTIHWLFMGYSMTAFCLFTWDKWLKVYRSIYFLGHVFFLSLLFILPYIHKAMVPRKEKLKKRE

[5] = test system: AEA-DA lipid probe targets in Neuro2a cells; conditions: for SILAC ratio, GM20425 (E9Q035): AEA-DA probe
[6] = target: T4, AEA-DA lipid probe targets in Neuro2a cells (Mus musculus, UniProt Q8R127)
T4 sequence (Q8R127 1-429): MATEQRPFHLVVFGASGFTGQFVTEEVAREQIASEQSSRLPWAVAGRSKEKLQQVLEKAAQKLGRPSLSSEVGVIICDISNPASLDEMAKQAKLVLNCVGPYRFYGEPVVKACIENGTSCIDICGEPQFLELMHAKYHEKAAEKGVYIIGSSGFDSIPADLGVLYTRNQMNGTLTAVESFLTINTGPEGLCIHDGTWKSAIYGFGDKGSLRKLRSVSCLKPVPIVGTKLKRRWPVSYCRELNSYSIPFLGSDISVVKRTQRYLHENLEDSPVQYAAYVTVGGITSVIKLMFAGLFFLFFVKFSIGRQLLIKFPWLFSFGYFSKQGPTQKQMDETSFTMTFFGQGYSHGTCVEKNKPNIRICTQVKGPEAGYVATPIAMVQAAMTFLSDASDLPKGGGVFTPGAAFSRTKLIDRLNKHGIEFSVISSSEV

[7] = target: AEA-DA lipid probe targets in Neuro2a cells (Mus musculus, UniProt P62814)
Chain of AEA-DA lipid probe targets in Neuro2a cells (Mus musculus, UniProt P62814) (P62814 whole entry): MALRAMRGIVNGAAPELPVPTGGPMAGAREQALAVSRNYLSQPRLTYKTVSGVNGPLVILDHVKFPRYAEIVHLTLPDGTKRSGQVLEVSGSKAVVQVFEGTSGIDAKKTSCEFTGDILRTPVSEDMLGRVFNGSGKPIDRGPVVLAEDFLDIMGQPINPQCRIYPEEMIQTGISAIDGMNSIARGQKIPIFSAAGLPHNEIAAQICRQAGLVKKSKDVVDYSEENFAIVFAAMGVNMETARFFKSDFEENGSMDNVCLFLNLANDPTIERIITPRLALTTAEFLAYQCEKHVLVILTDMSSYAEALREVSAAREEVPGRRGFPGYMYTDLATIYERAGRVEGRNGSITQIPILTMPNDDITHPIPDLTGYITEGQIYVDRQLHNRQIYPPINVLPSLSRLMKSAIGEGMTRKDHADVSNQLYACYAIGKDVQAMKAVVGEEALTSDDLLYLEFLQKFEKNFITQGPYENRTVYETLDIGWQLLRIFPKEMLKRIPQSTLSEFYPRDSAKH

[8] = target: AEA-DA lipid probe targets in Neuro2a cells (Mus musculus, UniProt Q9D8N0)
Chain of AEA-DA lipid probe targets in Neuro2a cells (Mus musculus, UniProt Q9D8N0) (Q9D8N0 whole entry): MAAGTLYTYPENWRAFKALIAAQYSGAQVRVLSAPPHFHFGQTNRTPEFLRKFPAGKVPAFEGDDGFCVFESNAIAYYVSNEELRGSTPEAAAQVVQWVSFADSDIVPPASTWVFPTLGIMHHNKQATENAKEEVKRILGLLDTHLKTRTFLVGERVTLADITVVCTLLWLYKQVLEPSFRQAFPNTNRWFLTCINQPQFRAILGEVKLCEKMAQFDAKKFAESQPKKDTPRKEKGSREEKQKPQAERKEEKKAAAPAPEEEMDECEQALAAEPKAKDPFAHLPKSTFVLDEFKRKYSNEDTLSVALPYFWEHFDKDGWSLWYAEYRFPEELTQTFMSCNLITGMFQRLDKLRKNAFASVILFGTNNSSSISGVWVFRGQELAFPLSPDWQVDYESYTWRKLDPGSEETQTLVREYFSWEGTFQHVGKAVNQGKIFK

[9] = target: T5, AEA-DA lipid probe targets in Neuro2a cells (Mus musculus, UniProt Q99L04)
T5 sequence (Q99L04 1-313): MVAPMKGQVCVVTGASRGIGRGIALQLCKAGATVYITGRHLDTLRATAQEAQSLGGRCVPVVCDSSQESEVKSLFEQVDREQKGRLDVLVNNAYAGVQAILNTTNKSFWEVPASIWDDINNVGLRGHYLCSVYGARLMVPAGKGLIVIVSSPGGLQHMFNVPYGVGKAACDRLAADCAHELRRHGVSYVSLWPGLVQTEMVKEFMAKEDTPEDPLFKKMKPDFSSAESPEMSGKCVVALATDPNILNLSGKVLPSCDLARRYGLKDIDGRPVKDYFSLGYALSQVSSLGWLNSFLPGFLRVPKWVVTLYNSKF

CCCCC/C=C\C/C=C\C/C=C\C/C=C\CCCC(=O)NCCO [AEA, anandamide, reference compound]
SILAC ratio, Rab11b ([1]; competitor 200 μM): 1.6
SILAC ratio, Ptges2 ([2]; competitor 200 μM): 2.1
SILAC ratio, Scg2 ([3]; competitor 200 μM): 1.2
SILAC ratio, LPCAT3 (Q6P1A2) ([4]; competitor 200 μM): 1.4
SILAC ratio, Lpcat3 ([4]; competitor 200 μM): 1.4
competition of AEA-DA labeling by lipid competitor ([5]; Neuro2a cells, 200 μM): competed with several targets
SILAC ratio, GM20425 (E9Q035) ([5]; Neuro2a cells, competitor 200 μM): 2.3
SILAC ratio Akr1c12 ([5]; competitor 200 μM): 1.8
SILAC ratio Uncharacterized ([5]; competitor 200 μM): 1.7
SILAC ratio, Akr1b10 ([5]; competitor 200 μM): 4.5
SILAC ratio, Gm20425 ([5]; competitor 200 μM): 2.3
SILAC ratio, Gm20671 ([5]; competitor 200 μM): 1.8
SILAC ratio, Tmpo ([5]; competitor 200 μM, first Tmpo line (r51)): 2.0
SILAC ratio, Tmpo ([5]; competitor 200 μM, second Tmpo line (r55)): 1.9
SILAC ratio, Sccpdh ([6]; competitor 200 μM): 3.4
SILAC ratio Atp6v1b2 ([7]; competitor 200 μM): 1.1
SILAC ratio Eef1g ([8]; competitor 200 μM): 1.4
SILAC ratio, Dhrs1 ([9]; competitor 200 μM): 18.4

O=C(/C=C/c1cccnc1)NCCCCC1CCN(C(=O)c2ccccc2)CC1 [FK-866, reference compound]
SILAC ratio, Rab11b ([1]; competitor 25 μM): 1.2
SILAC ratio, Ptges2 ([2]; competitor 25 μM): 1.4
SILAC ratio, Scg2 ([3]; competitor 25 μM): 1.0
SILAC ratio, LPCAT3 (Q6P1A2) ([4]; competitor 25 μM): 2.3
SILAC ratio, Lpcat3 ([4]; competitor 25 μM): 2.3
competition of probe labeling of NAMPT and ABCB1B ([5]; Neuro2a cells, AEA-DA 5 μM, drug 25 μM): competed probe-labeling
SILAC ratio, GM20425 (E9Q035) ([5]; Neuro2a cells, competitor 25 μM): 1.2
SILAC ratio Akr1c12 ([5]; competitor 25 μM): 1.3
SILAC ratio H2-K1 ([5]; competitor 25 μM): 1.0
SILAC ratio Nup205 ([5]; competitor 25 μM): 0.9
SILAC ratio Uncharacterized ([5]; competitor 25 μM): 1.3
SILAC ratio, Gm20425 ([5]; competitor 25 μM): 1.2
SILAC ratio, Tmpo ([5]; competitor 25 μM, first Tmpo line (r51)): 1.0
SILAC ratio, Tmpo ([5]; competitor 25 μM, second Tmpo line (r55)): 1.1
SILAC ratio, Sccpdh ([6]; competitor 25 μM): 7.3
SILAC ratio Atp6v1b2 ([7]; competitor 25 μM): 1.6
SILAC ratio Eef1g ([8]; competitor 25 μM): 1.5
SILAC ratio, Dhrs1 ([9]; competitor 25 μM): 8.0
